The values below come from PubChem BioAssay (NCI).

Values joined by “and” are separate entries in the source; they are usually repeats but may differ in a detail not shown here. Equal values may be shown once.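 A five-concentration, 48-hour dose response in 96-well plates underlies each endpoint, interpolated linearly between surrounding concentrations. The concentration for 50% growth inhibition is given as GI50. TGI marks complete inhibition of growth.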 *1 amine or outer side, *2 acyl side, *3 side chain or, on linkers, in order; H or OH if unused. Where a SMILES comes first, the peptide text is derived from it. [ ]: non-standard residue; d: D form. X56 = CC[C@H](C)[C@H](OC(=O)[C@@H](C)[C@@H](CC)N[*:1])C(=O)[*:2]; X32 = C[C@H](N[*:1])C(=O)C(C)(C)C(=O)[*:2]; NMeY = CN[C@@H](Cc1ccc(O)cc1)C(=O)O; NMeL = CN[C@@H](CC(C)C)C(=O)O; NMeV = CN[C@H](C(=O)O)C(C)C

Test systems include U251 CNS; NCI-H23 lung; RXF 393 renal; IGROV1 ovarian; CCRF-CEM leukemia; 786-0 renal; NCI-H522 lung; DMS 273 small cell lung; HOP-18 NSCLC; SNB-78 CNS.
Test in all cases: NCI tumour cell line growth inhibition, 48 h

Turning to `COc1ccc(OC)c2c(=S)c3ccccc3[nH]c12`, the TGI in the experiment on U251 CNS is more than 100 µM; in the experiment with NCI-H23 lung, more than 100 µM; in the experiment on RXF 393 renal, more than 100 µM; in the experiment on IGROV1 ovarian, more than 100 µM; in the experiment with CCRF-CEM leukemia, more than 86.1 µM; in the experiment with 786-0 renal it was more than 100 µM. In addition, the TGI with NCI-H522 lung and in the experiment with DMS 273 small cell lung was more than 100 µM each time.
On to `CC1C(=O)O[C@H]2C1CC[C@@]1(C)[C@H](O)CC[C@@]13C[C@]2(O)OO3` (some centres undefined), for which the TGI in the experiment on U251 CNS, in the experiment on NCI-H23 lung, in the experiment on IGROV1 ovarian, in the experiment on CCRF-CEM leukemia, with 786-0 renal and with DMS 273 small cell lung was more than 100 µM throughout. In the experiment on HOP-18 NSCLC, this compound registered a TGI of more than 100 µM.
As for `O=C(NCc1ccncc1)C1COc2cc(-c3cc(=O)c4ccccc4o3)ccc2O1` (centres undefined), the TGI with U251 CNS, in the experiment on NCI-H23 lung, in the experiment with RXF 393 renal, in the experiment on IGROV1 ovarian, with CCRF-CEM leukemia and in the experiment with 786-0 renal was more than 100 µM throughout. In addition, the TGI in the experiment on NCI-H522 lung and in the experiment on SNB-78 CNS was more than 100 µM throughout.
For the compound `C1=Nc2ccccc2C=Nc2ccccc2C=Nc2ccccc2C=Nc2ccccc21.[Cl-].[Pt+2]`, the GI50 is 10.5 µM with U251 CNS; 18.8 µM with IGROV1 ovarian; 14.9 µM with CCRF-CEM leukemia; 32.2 µM in the experiment on 786-0 renal; 15.8 µM in the experiment on NCI-H522 lung; 19 µM in the experiment on DMS 273 small cell lung. Besides, in the experiment with HOP-18 NSCLC, the GI50 was 22.3 µM. The TGI with U251 CNS came to 27.5 µM; in the experiment with IGROV1 ovarian, 49.5 µM; with CCRF-CEM leukemia, 67.2 µM; in the experiment with 786-0 renal it was 97.1 µM; in the experiment with NCI-H522 lung, 34.8 µM; in the experiment on DMS 273 small cell lung it was 55.5 µM. Further, in the experiment with HOP-18 NSCLC, the TGI was more than 100 µM.
`O=c1c2cccnc2ncn1CCN1CCCC1`: the TGI with U251 CNS, with NCI-H23 lung, with RXF 393 renal, with IGROV1 ovarian, in the experiment on CCRF-CEM leukemia and with 786-0 renal was more than 100 µM throughout. The TGI with NCI-H522 lung, in the experiment on DMS 273 small cell lung and with SNB-78 CNS was more than 100 µM throughout.
In the case of `CC[C@H](C)[C@@H]1OC(=O)[C@@H](C)[C@@H](CC)NC(=O)[C@H](C)NC(=O)C(C)(C)C(=O)[C@H](C)NC(=O)[C@H](Cc2ccc(OC)cc2)N(C)C(=O)[C@H](C(C)C)N(C)C(=O)CNC(=O)[C@H](CC(C)C)N(C)C(=O)CNC1=O` (cyclo(A[X56]G[NMeL]G[NMeV][NMeY](Me)[X32])), the TGI in the experiment on U251 CNS is 1.08 µM and 0.15 µM; with NCI-H23 lung, 3.66 µM; with RXF 393 renal it was 0.0483 µM and 0.104 µM; with IGROV1 ovarian, 0.306 µM and 0.102 µM; in the experiment on 786-0 renal, 0.48 µM and 0.233 µM; with DMS 273 small cell lung, 0.072 µM. The compound also displayed a TGI in the experiment with HOP-18 NSCLC of 0.0425 µM. In addition, the GI50 in the experiment on NCI-H23 lung is 0.367 µM; in the experiment with RXF 393 renal, 0.0274 µM; in the experiment on IGROV1 ovarian, 0.0193 µM; with CCRF-CEM leukemia it was less than 0.0152 µM; with 786-0 renal it was 0.0675 µM.
With `Cc1ccc(Oc2ccc([N+](=O)[O-])cc2[N+](=O)[O-])c(C)c1`, the TGI is more than 100 µM in the experiment on U251 CNS; more than 100 µM in the experiment with NCI-H23 lung; 89.7 µM in the experiment on RXF 393 renal; more than 100 µM in the experiment on IGROV1 ovarian; more than 100 µM in the experiment on CCRF-CEM leukemia; more than 100 µM in the experiment on 786-0 renal. In addition, the TGI with DMS 273 small cell lung and in the experiment on SNB-78 CNS was more than 100 µM each time.
Turning to `CCOP(=O)(OCC)C1=NC=CC=CC1n1c(-c2ccccc2)nn(CC)c1=O` (centres undefined), the TGI with U251 CNS, in the experiment with NCI-H23 lung, in the experiment with RXF 393 renal, in the experiment with IGROV1 ovarian, in the experiment with CCRF-CEM leukemia and in the experiment with 786-0 renal was more than 100 µM in each case. The TGI in the experiment on NCI-H522 lung, in the experiment on DMS 273 small cell lung and with HOP-18 NSCLC was more than 100 µM throughout.
Regarding `O=C(c1ccc(Cl)cc1)c1ccc(OCCSCCCCCCCCCCSCCOc2ccc(C(=O)c3ccc(Cl)cc3)cc2)cc1`, the TGI in the experiment on U251 CNS, in the experiment on NCI-H23 lung, in the experiment on RXF 393 renal, in the experiment on IGROV1 ovarian, in the experiment on CCRF-CEM leukemia and in the experiment on 786-0 renal was more than 100 µM throughout. For the same compound, the TGI in the experiment with NCI-H522 lung, with DMS 273 small cell lung and with SNB-78 CNS was more than 100 µM in each case.
On to `COc1cc(Nc2nc3ccc(C(F)(F)F)cc3nc2-c2ccccc2)cc(OC)c1OC`, for which the TGI with U251 CNS, in the experiment with NCI-H23 lung, in the experiment on RXF 393 renal, with IGROV1 ovarian, with CCRF-CEM leukemia and in the experiment on 786-0 renal was more than 100 µM throughout. Further, the TGI in the experiment with NCI-H522 lung was 93.6 µM; in the experiment on DMS 273 small cell lung it was more than 100 µM; with SNB-78 CNS, more than 100 µM.
`CSc1ncnc2c1CCN2`: the GI50 in the experiment with NCI-H23 lung, in the experiment with IGROV1 ovarian, in the experiment on 786-0 renal and with NCI-H522 lung was more than 100 µM throughout. In addition, the TGI with NCI-H23 lung, in the experiment with IGROV1 ovarian, with 786-0 renal and with SNB-78 CNS was more than 100 µM each time.
For `N#CC1CC2(C(=O)C1=O)c1ccccc1-c1ccccc12` (centres undefined), the TGI in the experiment with U251 CNS, in the experiment on NCI-H23 lung, with RXF 393 renal, with IGROV1 ovarian, in the experiment with CCRF-CEM leukemia and in the experiment on 786-0 renal was more than 100 µM in each case. The TGI in the experiment on NCI-H522 lung, in the experiment on DMS 273 small cell lung and with HOP-18 NSCLC was more than 100 µM throughout.
With `COC1=C(Br)C(=O)C2=C(C1=O)C1C3=C(C(=O)C=CC3=O)C2c2ccccc21` (centres undefined), the GI50 is 4.31 µM with U251 CNS; 17.3 µM in the experiment with NCI-H23 lung; 18.3 µM in the experiment on RXF 393 renal; 9.4 µM in the experiment with IGROV1 ovarian; 3.16 µM with CCRF-CEM leukemia; 14.9 µM with 786-0 renal. Further, the GI50 with NCI-H522 lung is 3.26 µM. For the same compound, the TGI in the experiment with U251 CNS was 22.2 µM; in the experiment with NCI-H23 lung, 48.5 µM; in the experiment with RXF 393 renal, 37.5 µM; with IGROV1 ovarian, 45.1 µM; in the experiment on CCRF-CEM leukemia, more than 100 µM; in the experiment with 786-0 renal it was 36.1 µM. Besides, the TGI with NCI-H522 lung is 14.4 µM.
